The values below are quoted from earlier work in patent US6384084B2, “Histochrome and its therapeutic use in ophthalmology” (Tikhookeansky Institut Bioorganicheskoi Khimii …, priority 1998, dated 2002).

Structures are written as SMILES.

For series [1] the following is noted: patients, 0.5% solution.
The conditions of series [2]: rabbits, 0.5% solution, subconjunctival and parabulbar.

Turning to `CCc1nc(C)ccc1O` [Emoxipin], where the note is “injection of a 1% solution”, the “Resorption of intraocular hemorrhages” value is “facilitates the resorption of intraocular hemorrhages”. For the same compound, the “Adverse effect in the course of therapy” value (monitoring of blood coagulation required) is on record as “liable to cause reccurrent hemorrhages”.

Consider `CCc1c(O)c(O)c2c(c1O)C(=O)C(O)=C(O)C2=O` [echinochrome, 2,3,5,6,8-pentahydroxy-7-ethyl-1,4-naphthoquinone], for which the “Pain at the time of administration” value in series [1] was “patients experienced acute pain at the time of administration”. Besides, the “Effect on epithelization of the cornea and inflammatory processes in eye burns” value in series [2] is “able to facilitate epithelization of the cornea at early stages of the treatment of eye burns and to alleviate inflammatory processes in the eye”.
